Data taken from ChEMBL document CHEMBL1201862, “PubChem BioAssay data set” (2004).
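Results reflect a 48-hour exposure of cells in 96-well plates to compound at five concentrations. The concentration for 50% growth inhibition is given as GI50.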 Active and inactive are the calls of the source. Cut-off read from the data, not from the text of the source: active = GI50 up to about 1.1 µM and inactive = higher.

Columns and labels:
Experiment in all cases: growth of human tumour cells (NCI), 48 h
HOP-92 = test system: HOP-92
BT-549 = test system: BT-549
LOX IMVI = test system: LOX IMVI
SNB-75 = test system: SNB-75
ACHN = test system: ACHN
NCI-H226 = test system: NCI-H226
HT-29 = test system: HT-29
HCC 2998 = test system: HCC 2998
TK-10 = test system: TK-10
HCT-15 = test system: HCT-15
UACC-257 = test system: UACC-257
SN12C = test system: SN12C
NCI/ADR-RES = test system: NCI/ADR-RES
SK-MEL-28 = test system: SK-MEL-28
SK-MEL-5 = test system: SK-MEL-5
OVCAR-8 = test system: OVCAR-8
SW-620 = test system: SW-620
PC-3 = test system: PC-3
SNB-19 = test system: SNB-19
DU-145 = test system: DU-145
A498 = test system: A498
HCT-116 = test system: HCT-116
A549 = test system: A549
UACC-62 = test system: UACC-62
MDA-MB-435 = test system: MDA-MB-435
RPMI-8226 = test system: RPMI-8226
K562 = test system: K562
SR = test system: SR
CCRF-CEM = test system: CCRF-CEM
CAKI-1 = test system: CAKI-1
MDA-MB-231 = test system: MDA-MB-231
KM12 = test system: KM12
NCI-H23 = test system: NCI-H23
SF-268 = test system: SF-268
UO-31 = test system: UO-31
NCI-H460 = test system: NCI-H460
HL-60 = test system: HL-60
MDA-N = test system: MDA-N
U-251 = test system: U-251
COLO 205 = test system: COLO 205
Hs-578T = test system: Hs-578T
SK-MEL-2 = test system: SK-MEL-2
T47D = test system: T47D
OVCAR-4 = test system: OVCAR-4
786-0 = test system: 786-0
IGROV-1 = test system: IGROV-1
M14 = test system: M14
RXF 393 = test system: RXF 393
OVCAR-5 = test system: OVCAR-5
SF-295 = test system: SF-295
MOLT-4 = test system: MOLT-4
EKVX = test system: EKVX
OVCAR-3 = test system: OVCAR-3
Malme-3M = test system: Malme-3M
HOP-62 = test system: HOP-62
NCI-H522 = test system: NCI-H522
SF-539 = test system: SF-539

Measured: GI50

N#Cc1c2ccc([N+](=O)[O-])cc2c(=O)n2c1sc1ccccc12
22.2 µM: HCT-15
inactive: HOP-92 13.5 µM | BT-549 19.9 µM | LOX IMVI 25.2 µM | SNB-75 42.2 µM | ACHN 32.4 µM | NCI-H226 17 µM | HT-29 33.7 µM | HCC 2998 8.05 µM | TK-10 16 µM | UACC-257 78.5 µM | SN12C 24.3 µM | NCI/ADR-RES 18.4 µM | SK-MEL-28 17.6 µM | SK-MEL-5 22 µM | OVCAR-8 35.2 µM | SW-620 18.9 µM | PC-3 14.8 µM | SNB-19 10.5 µM | DU-145 35.5 µM | A498 13.5 µM | HCT-116 11.1 µM | A549 12.2 µM | UACC-62 28 µM | MDA-MB-435 57.7 µM | RPMI-8226 9.93 µM | K562 11.1 µM | SR 3.94 µM | CCRF-CEM 7.29 µM | CAKI-1 24.4 µM | MDA-MB-231 17.2 µM | KM12 31.6 µM | NCI-H23 15.2 µM | SF-268 56.2 µM | UO-31 22.6 µM | NCI-H460 27.5 µM | HL-60 19.3 µM | MDA-N 80.2 µM | U-251 14.6 µM | COLO 205 6.87 µM | Hs-578T 48 µM | SK-MEL-2 17.3 µM | T47D 14.8 µM | OVCAR-4 20.6 µM | 786-0 24.2 µM

COC(=O)c1cc(C)ccc1/C=C1\Cc2cc(C)c(C)cc2C1=O
inactive: HOP-92 36.2 µM | BT-549 > 100 µM | LOX IMVI > 100 µM | SNB-75 17.5 µM | IGROV-1 > 100 µM | ACHN > 100 µM | NCI-H226 > 100 µM | HT-29 > 100 µM | M14 > 100 µM | HCC 2998 > 100 µM | TK-10 > 100 µM | UACC-257 > 100 µM | SN12C > 100 µM | SK-MEL-28 > 100 µM | SK-MEL-5 > 100 µM | OVCAR-8 > 100 µM | SW-620 > 100 µM | PC-3 > 100 µM | SNB-19 29.9 µM | DU-145 > 100 µM | RXF 393 50.5 µM | A498 68.9 µM | HCT-116 > 100 µM | OVCAR-5 > 100 µM | A549 > 100 µM | SF-295 38.7 µM | UACC-62 27.8 µM | MOLT-4 33.1 µM | RPMI-8226 > 100 µM | K562 89.3 µM | EKVX > 100 µM | SR > 100 µM | OVCAR-3 51.1 µM | CAKI-1 > 100 µM | MDA-MB-231 > 100 µM | KM12 > 100 µM | Malme-3M > 100 µM | NCI-H23 > 100 µM | SF-268 41.1 µM | HOP-62 39 µM | UO-31 > 100 µM | NCI-H460 > 100 µM | HL-60 > 100 µM | MDA-N > 100 µM | Hs-578T 38.8 µM | SK-MEL-2 60.3 µM | T47D > 100 µM | OVCAR-4 > 100 µM | 786-0 55.8 µM | NCI-H522 > 100 µM | SF-539 > 100 µM
> 100 µM: HCT-15
active: CCRF-CEM 0.108 µM
